In PMC9081329, “Pharmacokinetics, Mass Balance, Excretion, and Tissue Distribution of Plasmalogen Precursor PPI-1011” (Frontiers in Cell and Developmental Biology, 2022):

Assay: Repeat dose tissue distribution study (QWBA, LSC of blood and plasma), 15 daily doses
Format: in vivo, Sprague-Dawley rats
Description: Three male rats were administered [^14C]PPI-1011 at 100 mg/kg (100 μCi/kg) once daily for 15 days. One rat was sacrificed at each of the following time points after the administration of the day 15 dose: 24, 48, and 96 h. Terminal blood was collected by cardiac puncture directly into tubes with K2EDTA, an aliquot was stored at 4°C until LSC was performed for radioactivity, while the remaining blood was processed to plasma and stored at −20°C until LSC. Following blood collection, the carcasses were frozen in a cold bath with hexanes and dry ice for at least 8 min and then dried and stored at −70°C for at least 12 h. The carcasses were transferred to a −20°C freezer for at least 12 h before embedding.
QWBA was used to determine radioactivity concentrations in the caecum (contents and mucosa), large intestine (contents and mucosa), small intestine (contents and mucosa), stomach (contents and mucosa), brain, choroid plexus, spinal cord, bone, skin, adrenal gland, pineal body, pituitary gland, thyroid gland, liver, kidney (cortex, medulla and whole kidney), urinary bladder (contents and wall), brown fat, white fat, eye (lens, uveal tract and whole eye), epididymis, prostate gland, testis, ovary, uterus, lung, exorbital lachrymal gland, Harderian gland, pancreas, salivary gland, skeletal muscle, myocardium, cardiac blood, bone marrow, lymph node, spleen, and thymus. As well, LSC was used to determine the total radioactivity in the whole blood and plasma.
The whole-body cryosectioning technique described by ([Ullberg, 1977]) was the basis for embedding and cryosectioning the rats assigned to this study. Each frozen carcass was shaved, and then the limbs and tail were removed prior to embedding. Chilled (4°C) 3% CMC (low viscosity) was utilized to provide a firm support of reinforced ice around each rat and for a secure attachment to the microtome stage. Upon thorough freezing of the embedding medium surrounding each rat, the frozen CMC block was removed from the freezing bath and four 3/8 inch holes were drilled into the block. One cryosection quality control standard (CQCS) was prepared with a known amount of radioactivity and at least 1 ml aliquots were added to each of the four drilled holes. CQCS data were utilized to evaluate the overall performance of the QWBA assay.
Each frozen rat was sagittally trimmed (50–100 μm) at −20°C until exposure of a few target tissues employing a Leica Cryomacrocut heavy-duty microtome (Leica Microsystems Inc.,). Disposable stainless steel Feather type H45L knives (Feather Safety Razor Co., Ltd.) were utilized for trimming and sectioning each frozen rat. Several thinner sections (50 μm) were discarded prior to obtaining multiple 50 μm sections at various cryosectioning levels for QWBA analysis. Upon the collection of at least 60 target tissues in multiple cryosectioning levels, the cryosections were kept in the Cryomacrocut cryochamber for a minimum of 18 h for dehydration depending upon the number of cryosections within the cryochamber. After dehydration was complete, the cryosections were transferred to ambient temperature for processing. Mounted whole-body cryosections and a set of 15 standards were sandwiched between a standard phosphor screen and an exposure cassette. All cryosections were exposed to the phosphor screen for 4-days in a cabinet protected with lead prior to scanning using a Typhoon PhosphorImager (Cytiva). MCID™ Analysis software (InterFocus Ltd.) was utilized to generate a calibration curve of the STD nominal concentrations (nCi/g) versus PhosphorImager response (counts/μm^2 minus background) by weighted (1/x) linear regression analysis ([Potchoiba et al., 1995]; [Potchoiba et al., 1998]). The linear regression curve was then utilized to determine the concentration (nCi/g) of total radioactivity in whole-body tissues and blood. Radioactivity concentrations were expressed as μg Eq/g based on the specific activity of the compound in the final dose formulations. […]

[1] = 48 hr post 15 daily oral 100 mg/kg
[2] = 96 hr post 15 daily oral 100 mg/kg

CC/C=C\C/C=C\C/C=C\C/C=C\C/C=C\C/C=C\CCC(=O)O[C@H](CO[14CH2]CCCCCCCCCCCCCCC)COC(=O)CCCCC1CCSS1 (some centres unmarked) [[^14C]PPI-1011]
Radioactivity concentration, Colliculus [1]: 68.0 μg equivalents/g | Radioactivity concentration, Diaphragm [1]: 172 μg equivalents/g | Radioactivity concentration, Esophagus [1]: 94.8 μg equivalents/g | Radioactivity concentration, Exorbital Lacrimal Gland [1]: 82.5 μg equivalents/g | Radioactivity concentration, Gastric Mucosa [1]: 307 μg equivalents/g | Radioactivity concentration, Harderian Gland [1]: 69.6 μg equivalents/g | Radioactivity concentration, Intra-Orbital Lacrimal Gland [1]: 84.5 μg equivalents/g | Radioactivity concentration, Kidney [1]: 221 μg equivalents/g | Radioactivity concentration, Large Intestines [1]: 122 μg equivalents/g | Radioactivity concentration, Liver [1]: 186 μg equivalents/g | Radioactivity concentration, Lung [1]: 181 μg equivalents/g | Radioactivity concentration, Lymph Node [1]: 165 μg equivalents/g | Radioactivity concentration, Medulla Oblongata [1]: 48.4 μg equivalents/g | Radioactivity concentration, Muscle [1]: 95.4 μg equivalents/g | Radioactivity concentration, Myocardium [1]: 222 μg equivalents/g | Radioactivity concentration, Nasal Turbinates [1]: 184 μg equivalents/g | Radioactivity concentration, Ocular - Lens [1]: 5.05 μg equivalents/g | Radioactivity concentration, Ocular - Uveal Tract [1]: 59.6 μg equivalents/g | Radioactivity concentration, Ocular - Vitreous Body [1]: 2.01 μg equivalents/g | Radioactivity concentration, Ocular - Whole Eye [1]: 15.8 μg equivalents/g | Radioactivity concentration, Olfactory Bulb [1]: 35.0 μg equivalents/g | Radioactivity concentration, Pancreas [1]: 312 μg equivalents/g | Radioactivity concentration, Parotid Gland [1]: 257 μg equivalents/g | Radioactivity concentration, Pineal Gland [1]: 156 μg equivalents/g | Radioactivity concentration, Pituitary Gland [1]: 226 μg equivalents/g | Radioactivity concentration, Prostate [1]: 72.1 μg equivalents/g | Radioactivity concentration, Renal Cortex [1]: 244 μg equivalents/g | Radioactivity concentration, Renal Medulla [1]: 183 μg equivalents/g | Radioactivity concentration, Salivary Gland [1]: 271 μg equivalents/g | Radioactivity concentration, Seminal Vesicles [1]: 60.7 μg equivalents/g | Radioactivity concentration, Skin - Non-Pigmented [1]: 101 μg equivalents/g | Radioactivity concentration, Small Intestines [1]: 164 μg equivalents/g | Radioactivity concentration, Spinal Cord [1]: 51.2 μg equivalents/g | Radioactivity concentration, Spleen [1]: 209 μg equivalents/g | Radioactivity concentration, Stomach [1]: 78.9 μg equivalents/g | Radioactivity concentration, Testis [1]: 47.2 μg equivalents/g | Radioactivity concentration, Thalamus [1]: 42.3 μg equivalents/g | Radioactivity concentration, Thymus [1]: 131 μg equivalents/g | Radioactivity concentration, Thyroid [1]: 297 μg equivalents/g | Radioactivity concentration, Whole Brain [1]: 43.7 μg equivalents/g | Radioactivity concentration, Adipose - Brown [2]: 1301 μg equivalents/g | Radioactivity concentration, Adipose - Brown (Vessel Wall) [2]: 1249 μg equivalents/g | Radioactivity concentration, Adipose - Subcutaneous [2]: 1373 μg equivalents/g | Radioactivity concentration, Adipose - Visceral [2]: 1265 μg equivalents/g | Radioactivity concentration, Adrenal Gland [2]: 1636 μg equivalents/g | Radioactivity concentration, Bladder Wall [2]: 101 μg equivalents/g | Radioactivity concentration, Blood - QWBA [2]: 29.5 μg equivalents/g | Radioactivity concentration, Bone Marrow [2]: 77.3 μg equivalents/g | Radioactivity concentration, Bone Surface [2]: 10.5 μg equivalents/g | Radioactivity concentration, Cerebellum [2]: 55.8 μg equivalents/g | Radioactivity concentration, Cerebrum [2]: 47.5 μg equivalents/g | Radioactivity concentration, Choroid Plexus [2]: 121 μg equivalents/g | Radioactivity concentration, Colliculus [2]: 67.3 μg equivalents/g | Radioactivity concentration, Diaphragm [2]: 125 μg equivalents/g | Radioactivity concentration, Esophagus [2]: 87.1 μg equivalents/g | Radioactivity concentration, Exorbital Lacrimal Gland [2]: 71.0 μg equivalents/g | Radioactivity concentration, Gastric Mucosa [2]: 210 μg equivalents/g | Radioactivity concentration, Harderian Gland [2]: 47.9 μg equivalents/g | Radioactivity concentration, Intra-Orbital Lacrimal Gland [2]: 76.5 μg equivalents/g | Radioactivity concentration, Kidney [2]: 238 μg equivalents/g | Radioactivity concentration, Large Intestines [2]: 94.3 μg equivalents/g | Radioactivity concentration, Liver [2]: 129 μg equivalents/g | Radioactivity concentration, Lung [2]: 191 μg equivalents/g | Radioactivity concentration, Lymph Node [2]: 127 μg equivalents/g | Radioactivity concentration, Medulla Oblongata [2]: 51.8 μg equivalents/g | Radioactivity concentration, Muscle [2]: 97.9 μg equivalents/g | Radioactivity concentration, Myocardium [2]: 172 μg equivalents/g | Radioactivity concentration, Nasal Turbinates [2]: 80.2 μg equivalents/g | Radioactivity concentration, Ocular - Lens [2]: 6.92 μg equivalents/g | Radioactivity concentration, Ocular - Uveal Tract [2]: 68.9 μg equivalents/g | Radioactivity concentration, Ocular - Vitreous Body [2]: 2.06 μg equivalents/g | Radioactivity concentration, Ocular - Whole Eye [2]: 18.2 μg equivalents/g | Radioactivity concentration, Olfactory Bulb [2]: 42.2 μg equivalents/g | Radioactivity concentration, Pancreas [2]: 333 μg equivalents/g | Radioactivity concentration, Parotid Gland [2]: 220 μg equivalents/g | Radioactivity concentration, Pineal Gland [2]: 179 μg equivalents/g | Radioactivity concentration, Pituitary Gland [2]: 191 μg equivalents/g | Radioactivity concentration, Prostate [2]: 84.8 μg equivalents/g | Radioactivity concentration, Renal Cortex [2]: 250 μg equivalents/g | Radioactivity concentration, Renal Medulla [2]: 186 μg equivalents/g | Radioactivity concentration, Salivary Gland [2]: 227 μg equivalents/g | Radioactivity concentration, Seminal Vesicles [2]: 54.7 μg equivalents/g | Radioactivity concentration, Skin - Non-Pigmented [2]: 129 μg equivalents/g | Radioactivity concentration, Small Intestines [2]: 112 μg equivalents/g | Radioactivity concentration, Spinal Cord [2]: 53.0 μg equivalents/g | Radioactivity concentration, Spleen [2]: 147 μg equivalents/g | Radioactivity concentration, Stomach [2]: 109 μg equivalents/g | Radioactivity concentration, Testis [2]: 43.3 μg equivalents/g | Radioactivity concentration, Thalamus [2]: 45.4 μg equivalents/g | Radioactivity concentration, Thymus [2]: 107 μg equivalents/g | Radioactivity concentration, Thyroid [2]: 259 μg equivalents/g | Radioactivity concentration, Whole Brain [2]: 47.3 μg equivalents/g | Decline of radioactivity from peak concentration, subcutaneous adipose (by 96 HPD, 15 daily doses): ~1.1 fold | Decline of radioactivity from peak concentration, visceral adipose (by 96 HPD, 15 daily doses): ~1.2 fold | Uptake in the brain following 15 doses versus single dose, on average (rat, in vivo): 16-18 times
